Molecular target: Epidermal growth factor receptor (Homo sapiens, UniProt P00533)
Experiment: Kinase Inhibition Assay: Reagents and Materials:WT EGFR (Carna, Cat. No. 08-115), EGFR [L858R] (Carna, Cat. No. 08-502), EGFR [L858R/T790M] (Carna, Cat. No. 08-510), ATP (Sigma, Cat. No. A7699-1G), DMSO (Sigma, Cat. No. D2650), 96-well plate (Corning, Cat. No. 3365), 384-well plate (Greiner, Cat. No. 784076), HTRF Kinase TK Kit (Cisbio, Cat. No. 62TK0PEJ), Erlotinib (Selleckchem, Cat. No. S7787) …
Description: Then, it was diluted in DMSO with a 3-fold series gradient dilution for 10 times. […] The corresponding substrate and ATP were added and reacted at room temperature for 20 minutes (in which a negative and a positive control were set: the negative control is blank and the positive control is erlotinib). […] The inhibitions of the enzyme activity by the compounds at different concentrations were then fitted using Graphpad 5.0 software according to the four-parameter equation, and the IC50 values were calculated.

Sequence of Epidermal growth factor receptor (P00533 25-1210 limits assumed, stated change not applied): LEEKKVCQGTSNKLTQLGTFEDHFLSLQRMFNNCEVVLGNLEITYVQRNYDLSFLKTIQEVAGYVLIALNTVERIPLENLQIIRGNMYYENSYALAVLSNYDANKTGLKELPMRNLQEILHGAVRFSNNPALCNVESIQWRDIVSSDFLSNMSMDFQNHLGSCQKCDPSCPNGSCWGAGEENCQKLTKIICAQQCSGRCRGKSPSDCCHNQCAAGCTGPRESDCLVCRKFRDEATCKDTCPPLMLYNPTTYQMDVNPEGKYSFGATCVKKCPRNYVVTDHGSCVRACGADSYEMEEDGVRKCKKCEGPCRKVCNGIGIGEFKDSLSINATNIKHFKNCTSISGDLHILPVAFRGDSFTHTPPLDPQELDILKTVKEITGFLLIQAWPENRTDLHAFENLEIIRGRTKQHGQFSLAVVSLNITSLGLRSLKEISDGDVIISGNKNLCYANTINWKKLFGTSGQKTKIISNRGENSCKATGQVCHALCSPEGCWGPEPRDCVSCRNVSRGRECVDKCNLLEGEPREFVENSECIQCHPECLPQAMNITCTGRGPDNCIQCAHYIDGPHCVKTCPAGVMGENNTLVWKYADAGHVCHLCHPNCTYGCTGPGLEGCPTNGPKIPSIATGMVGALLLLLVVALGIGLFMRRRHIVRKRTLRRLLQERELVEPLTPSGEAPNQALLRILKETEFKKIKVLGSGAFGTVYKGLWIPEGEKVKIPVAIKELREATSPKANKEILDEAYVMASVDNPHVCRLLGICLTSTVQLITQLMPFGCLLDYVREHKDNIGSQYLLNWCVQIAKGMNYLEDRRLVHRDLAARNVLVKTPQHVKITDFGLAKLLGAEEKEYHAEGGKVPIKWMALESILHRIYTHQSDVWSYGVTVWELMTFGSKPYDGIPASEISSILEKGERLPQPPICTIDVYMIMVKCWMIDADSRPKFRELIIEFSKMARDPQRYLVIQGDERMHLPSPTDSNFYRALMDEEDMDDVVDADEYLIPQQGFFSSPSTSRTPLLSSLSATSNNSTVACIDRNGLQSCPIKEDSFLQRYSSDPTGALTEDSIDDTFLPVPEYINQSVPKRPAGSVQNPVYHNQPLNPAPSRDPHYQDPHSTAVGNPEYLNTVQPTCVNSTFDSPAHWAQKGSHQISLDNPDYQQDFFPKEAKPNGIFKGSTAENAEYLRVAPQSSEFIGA

C=CC(=O)Nc1cc(Nc2nccc(-c3cc(F)c4nc(C)n(C(C)C)c4c3)n2)c(OC)cc1N1CCC(OC)CC1
IC50: > 100 nM
